These are literature values, as cited in patent publication US20110015154A1, “SUPPORTING ACETYLCHOLINE FUNCTION” (priority 2009, published 2011).

The conditions of data set [1]: supplementation.
Data set [2] relates to nuclear factor-kappa B (NFκB). Particulars: after 14 days of administration.
The next data set concerns cells. Particulars: against hydrogen peroxide, beta-amyloid protein, glutamate, ischemia, staurosporine-induced cytotoxicity, and apoptosis.
The conditions of data set [3]: in vivo.
In another data set the test system is M1 receptors. Particulars: adult rats.
A further data set deals with M2 receptors. Particulars: adult rats.

With `CC(=O)O[C@H](CC(=O)[O-])C[N+](C)(C)C` [acetyl-L-carnitine], the “pain in patients with diabetic peripheral neuropathy” value in data set [1] is given as “reduce pain”.

Regarding `C/C=C1\[C@H]2C=C(C)C[C@]1(N)c1ccc(=O)[nH]c1C2` [huperzine A, Huperzine A], in data set [2], the “activation of glial cells in an ischemic event” value is “reduced”, the “nuclear translocation of transcription factor NFκB” value is on record as “inhibited” and the “overexpression of pro-inflammatory mediators in an immune challenge” value is listed as “decreased”. In addition, the cell protection entry in the data set with cells was “protects cells”.

On to `C[N+](C)(C)CCOP(=O)([O-])OC[C@H](O)CO` [α-GPC, Alpha-glycerylphosphorylcholine], for which, in data set [3], the blood-brain barrier passage result is recorded as “can cross the blood-brain barrier”; the metabolism result is “rapidly metabolized into choline and glycerophosphate”. Besides, the “effect on M1 receptors” value in the data set with M1 receptors is recorded as “countered the loss of M1 receptors”. In addition, the “effect on M2 receptors” value in the data set on M2 receptors is “no effect”.
